Source: US11058699B2, “Method and compositions for inhibition of double stranded DNA viruses” (WISCONSIN ALUMNI RESEARCH FOUNDATION, priority 2008, dated 2021)
“Also recorded” adds a separate entry of the source.

Key:
[1] = tested on: wild type HPV16; assay: Wild type HPV16 infection of 293T cells, early gene expression by qRT-PCR; assay type: cell-based; details: 4 hours pre-treatment with 3 μM, 48 hours, compared with neutralizing antibody H16.7E
[2] = tested on: β-actin expression; assay: Cellular β-actin expression by qRT-PCR in 293T cells; assay type: cell-based, human; details: 3 μM, 48 hours
[3] = tested on: HPV pseudovirions hpvSEAP; assay: hpvSEAP pseudovirion infectivity assay (SEAP) in 293T cells; assay type: cell-based, HPV16
Procedure: FIG. 6. Early M phase arrest by CDK1 inhibition interferes with HPV infection. (FIG. 6A) 293T cells were treated with a CDK1 inhibitor, purvalanol A (3, 6, and 12 μM) and infected with hpvSEAP. […] The columns represent the mean, the bars represent the standard deviation. (FIG. 6B) Cell cycle arrest at M phase by purvalanol A (12 μM) is shown. Histograms indicate the cell cycle status of DMSO and purvalanol A-treated cells, respectively.
Cell cycle inhibitors block HPV infection. To identify mechanistic pathways and informative modulators of HPV infection, we tested nearly 5,000 compounds in known bioactive molecule libraries Prestwick (Prestwick Chemicals) and LOPAC (Library of Pharmacologically Active Compounds, Sigma), with HPV pseudovirions containing an SV40 promoter-driven secreted alkaline phosphatase (SEAP) reporter gene (hpvSEAP). […] Total RNA was extracted after 48 hours, and expression levels of HPV16 E1 ^E4 RNA transcripts were measured by qRT-PCR using E7, E2, and E5 sequence specific primers.
High throughput screening.
Infectivity assay. […] Infectivity of wild type HPV16 virions was examined by quantitative reverse transcriptase PCR (qRT-PCR) by amplifying viral mRNA signals from HPV16-treated 293TT cells. 293TT cells were infected with 50-100 vge/cell of packaged virus and incubated for 48 hours at 37° C.

[4] = tested on: hpv16wpA-RL; assay type: cell-based, HPV16; details: 293T cells, 24 hour synchronization with aphidicolin, 4 hour treatment 3 μM, 48 hours
[5] = tested on: influenza virus vector expressing RL; assay type: cell-based
[6] = tested on: HaCaT cells; assay: CellTiter-Glo Luminescent cell viability assay in HaCaT cells; details: 3 μM, 48 hours
Procedure: The reporter RL activity (FIG. 1A) and cell viability (FIG. 1B) were measured by Renilla Luciferase Assay System (Promega) and CellTiter-Glo Luminescent cell viability assay (Promega), respectively. Human keratinocyte HaCaT cells were inoculated with HPV16 LCR-driven RL containing pseudovirions hpv16wpA-RL after 4 hours of pre-treatment with 3 μM of each compound, and reporter expression/cell viability were scored 48 hours later. The expression value is shown as viability to untreated cells with hpv16wpA-RL.

[7] = 293 cells, HPV16 pseudoviruses expressing SEAP or Renilla luciferase, or intact infectious HPV16 (early gene expression)

SMILES	HPV16 gene expression (wild type HPV16 virion infection) [1]	cellular β-actin expression [2]	inhibition of HPV infection [3, 7]	HPV infection (RL activity) [4]	influenza infection (RL activity) [5]	effect on cell viability [6]	inhibition of HPV infection ([3]; 293 cells, HPV16 pseudoviruses expressing SEAP or Renilla luciferase, or intact infectious HPV16 (early gene expression), listed as etopside)	inhibition of HPV infection ([3]; 293T cells, 12 μM, hpvSEAP, 48 hours)	inhibition of HPV infection, dose dependence ([3]; 293T cells, 3, 6 and 12 μM, SEAP after 48 hours)
C[C@@]1(CO)[C@H](O)CC[C@@]2(C)[C@H]1CC[C@H]1C[C@@H]3C[C@@]12CC[C@]3(O)CO [aphidicolin]	blocked HPV16 gene expression even more efficiently than a neutralizing antibody	no effect; also recorded: not affected	significantly and consistently inhibit; also recorded: most significant and consistent inhibition	efficiently blocked	did not significantly affect	–	–	–	–
O=c1[nH]cc(F)c(=O)[nH]1 [5-fluorouracil]	–	–	–	–	–	did not have any effect	–	–	–
COc1cc([C@@H]2c3cc4c(cc3[C@@H](O[C@@H]3O[C@@H]5CO[C@@H](C)O[C@H]5[C@H](O)[C@H]3O)[C@H]3COC(=O)[C@H]23)OCO4)cc(OC)c1O [etoposide]	blocked HPV16 gene expression even more efficiently than a neutralizing antibody	no effect; also recorded: not affected	most significant and consistent inhibition	efficiently blocked	did not significantly affect	–	significantly and consistently inhibit	–	–
CC(C)[C@H](CO)Nc1nc(Nc2cccc(Cl)c2)c2ncn(C(C)C)c2n1 [Purvalanol A, purvalanol A]	–	–	–	–	–	–	–	about 5 fold	inhibited HPV infection dose-specifically
